Results taken from PMC7846450 (Science (New York, N.Y.), 2020).

Biological target: T1, Glk1 (Saccharomyces cerevisiae, UniProt P17709, F3S)
T1 sequence (P17709 1-500 F3S): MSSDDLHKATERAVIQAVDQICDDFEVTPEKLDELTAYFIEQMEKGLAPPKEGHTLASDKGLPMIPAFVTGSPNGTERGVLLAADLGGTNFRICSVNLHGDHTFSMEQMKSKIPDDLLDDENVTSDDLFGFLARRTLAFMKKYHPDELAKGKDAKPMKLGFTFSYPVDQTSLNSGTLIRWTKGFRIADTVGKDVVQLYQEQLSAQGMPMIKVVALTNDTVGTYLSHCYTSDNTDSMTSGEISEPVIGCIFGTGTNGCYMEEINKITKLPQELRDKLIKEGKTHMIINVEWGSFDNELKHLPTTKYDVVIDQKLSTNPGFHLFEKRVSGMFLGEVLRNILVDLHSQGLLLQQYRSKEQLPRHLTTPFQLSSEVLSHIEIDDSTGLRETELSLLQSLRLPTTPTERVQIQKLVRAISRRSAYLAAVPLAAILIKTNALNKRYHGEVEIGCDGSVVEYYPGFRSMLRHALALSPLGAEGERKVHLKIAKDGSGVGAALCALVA
Assay: enzyme activity versus Glk1 concentration
Assay type: biochemical
Settings: non-polymerizing mutant

`OC[C@H]1OC(O)[C@H](O)[C@@H](O)[C@@H]1O` (stereo partly shown) [glucose] was tested, and the “enzyme activity versus Glk1 concentration” value was “NonPol-Glk1 was enzymatically active but lacked the concentration-dependent inhibition of wild-type Glk1”.
